# Measurements taken from the Kinase Knowledgebase extract (Sharma et al. 2016).
# Target: MAPK14 (UniProt Q16539)
# Test: Inhibition of MAPK14 Kinase Activity
# Chain of MAPK14 (Q16539 whole entry, looked up): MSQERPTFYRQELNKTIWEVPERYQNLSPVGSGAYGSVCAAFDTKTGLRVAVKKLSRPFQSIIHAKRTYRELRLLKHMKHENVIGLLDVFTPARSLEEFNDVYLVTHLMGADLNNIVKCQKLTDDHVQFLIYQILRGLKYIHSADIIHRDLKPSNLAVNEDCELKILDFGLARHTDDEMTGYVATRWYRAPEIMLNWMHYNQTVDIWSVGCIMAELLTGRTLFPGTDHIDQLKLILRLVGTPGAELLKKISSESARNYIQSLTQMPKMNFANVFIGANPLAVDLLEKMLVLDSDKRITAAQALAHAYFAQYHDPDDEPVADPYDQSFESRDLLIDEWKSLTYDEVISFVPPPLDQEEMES
row,SMILES,IC50 [µM]
1,CCn1nc(C(C)(C)C)cc1NC(=O)Nc1ccc(CN2CCN(C(=O)c3c(Cl)cccc3Cl)CC2)cc1F,< 5
2,Cn1nc(C(C)(C)C)cc1NC(=O)Nc1ccc(OC2CCN(C(=O)c3ccccc3C(F)(F)F)CC2)cc1,< 5
3,Cn1nc(C(C)(C)C)cc1NC(=O)Nc1ccc(CN2CCN(C(=O)c3cccnc3)CC2)cc1,< 5
4,Cc1ccc(-n2nc(C(C)(C)C)cc2NC(=O)Nc2cc(F)cc(OC3CCN(C(=O)c4sccc4C)CC3)c2)cc1,< 5
5,Cn1nc(C(C)(C)C)cc1NC(=O)Nc1cc(F)cc(OC2CCN(C(=O)C(Cl)(Cl)Cl)CC2)c1,< 5
6,Cn1nc(C(C)(C)C)cc1NC(=O)Nc1ccc(CN2CCN(C(=O)c3c(F)cccc3F)CC2)c(F)c1,< 5
7,Cc1ccc(-n2nc(C(C)(C)C)cc2NC(=O)NC2CCN(C(=O)c3ccc(S(C)(=O)=O)cc3)CC2)cc1,< 5
8,CC(C)(C)c1cc(NC(=O)Nc2ccc(OC3CCN(C(=O)c4c(F)cccc4F)CC3)cc2)[nH]n1,< 5
9,CCn1nc(C(C)(C)C)cc1NC(=O)Nc1ccc(CN2CCN(C(=O)c3ccc(F)cc3F)CC2)cc1F,< 5
10,CCn1nc(C(C)(C)C)cc1NC(=O)Nc1ccc(CN2CCN(C(=O)c3c(F)cccc3F)CC2)cc1F,< 5
11,Cn1nc(C(C)(C)C)cc1NC(=O)Nc1ccc(CN2CCN(C(=O)c3c(Cl)cccc3Cl)CC2)cc1,< 5
12,Cc1ccc(-n2nc(C(C)(C)C)cc2NC(=O)Nc2ccc(OCC3CCN(C(=O)c4c(Cl)cccc4Cl)CC3)c3ccccc23)cc1,< 5
13,CC(=O)N1CCN(Cc2ccc(NC(=O)Nc3cc(C(C)(C)C)nn3C)cc2)CC1,< 5
14,CC(C)(C)c1cc(NC(=O)Nc2ccc(OC3CCN(C(=O)c4ccccc4Cl)CC3)cc2)[nH]n1,< 5
15,Cn1nc(C(C)(C)C)cc1NC(=O)Nc1ccc(CN2CCN(C(=O)c3ccc(F)cc3F)CC2)cc1F,< 5
16,Cc1ccc(-n2nc(C(C)(C)C)cc2NC(=O)Nc2ccc(N3CCN(S(=O)(=O)C4CC4)CC3)cc2)cc1,< 5
17,Cn1nc(C(C)(C)C)cc1NC(=O)Nc1ccc(OC2CCN(C(=O)OC(C)(C)C)CC2)cc1,< 5
18,Cn1nc(C(C)(C)C)cc1NC(=O)Nc1cc(F)cc(OC2CCN(C(=O)C3(C)CC3)CC2)c1,< 5
19,Cn1nc(C(C)(C)C)cc1NC(=O)Nc1cc(F)cc(OC2CCN(C(=O)C3CC3(Cl)Cl)CC2)c1 (stereo not drawn),< 5

# The next lines start with the values.
row,IC50 [µM],SMILES
1,< 5,Cn1nc(C(C)(C)C)cc1NC(=O)Nc1cc(F)cc(OC2CCN(C(=O)c3ccccc3C(F)(F)F)CC2)c1
2,< 5,Cn1nc(C(C)(C)C)cc1NC(=O)Nc1cccc(OC2CCN(C(=O)OCc3ccccc3)CC2)c1
3,< 5,Cc1cc(C(=O)N2CCC(Oc3cccc(NC(=O)Nc4cc(C(C)(C)C)nn4C)c3)CC2)c(C)[nH]1
4,< 5,Cc1ccsc1C(=O)N1CCC(Oc2cc(F)cc(NC(=O)Nc3cc(C(C)(C)C)nn3C)c2)CC1
5,< 5,Cn1nc(C(C)(C)C)cc1NC(=O)Nc1ccc(OC2CCN(C(=O)c3sccc3Cl)CC2)cc1
6,< 5,Cc1ccsc1C(=O)N1CCC(Oc2cccc(NC(=O)Nc3cc(C(C)(C)C)nn3C)c2)CC1
7,< 5,Cc1cc(C(=O)N2CCC(Oc3cc(F)cc(NC(=O)Nc4cc(C(C)(C)C)nn4C)c3)CC2)c(C)[nH]1
8,< 5,Cn1nc(C(C)(C)C)cc1NC(=O)Nc1cccc(OC2CCN(C(=O)c3ccccc3)CC2)c1
9,< 5,Cn1nc(C(C)(C)C)cc1NC(=O)Nc1cc(F)cc(OC2CCN(C(=O)c3ccccc3OC(F)(F)F)CC2)c1
10,< 5,Cn1nc(C(C)(C)C)cc1NC(=O)Nc1cc(F)cc(OC2CCN(C(=O)c3ccc4cc[nH]c4c3)CC2)c1
11,< 5,Cn1nc(C(C)(C)C)cc1NC(=O)Nc1cccc(OC2CCN(C(=O)c3ccc(Br)s3)CC2)c1
12,< 5,Cn1nc(C(C)(C)C)cc1NC(=O)Nc1cc(F)cc(OC2CCN(C(=O)c3c(F)cccc3F)CC2)c1
13,< 5,Cn1nc(C(C)(C)C)cc1NC(=O)Nc1ccc(OC2CCN(C(=O)c3cn[nH]c3)CC2)cc1
14,< 5,Cn1nc(C(C)(C)C)cc1NC(=O)Nc1cc(F)cc(OC2CCN(C(=O)c3c(F)cccc3Cl)CC2)c1
